Laboratory results: US10183944B2 (Asana Biosciences, LLC, priority 2011, dated 2019)
Where a name gives a salt, the structure may show the parent alone.

Key:
JAK2 = JAK2 (Homo sapiens (Human), UniProt O60674); assay: Inhibition of enzymatic JAK2 kinase activity (TR-FRET); assay type: biochemical; settings: read-out: IC50 JAK
Summary of the method: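 TR-FRET read-out (Eu antibody donor, Ulight poly Glu-Tyr acceptor, 665/615 nm ratio) after a 60 min RT kinase reaction with ATP, begun following 30 min compound–enzyme preincubation. Stopped by EDTA; inhibition expressed as 100 minus % activity of positive control.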

[1] = molecular target: Syk (356-635 amino acids) catalytic domain (Homo sapiens (Human), UniProt P43405); assay: Inhibition of enzymatic Syk kinase activity (radiometric); assay type: biochemical; settings: read-out: IC50 Syk
Summary of the method: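 Radiometric filter-binding format: 32P transfer from γ-32P-ATP onto pG4T, scintillation-counted after acid washes of P81 paper. Syk kinase domain (356-635), 0.035–7.5 ng per reaction, was exposed to compound for 30 minutes at room temperature before a 10-minute, 30° C. reaction with ATP (100 μM stock). Inhibition derived from counts with versus without compound.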

Sequence of JAK2 (O60674 808-1132): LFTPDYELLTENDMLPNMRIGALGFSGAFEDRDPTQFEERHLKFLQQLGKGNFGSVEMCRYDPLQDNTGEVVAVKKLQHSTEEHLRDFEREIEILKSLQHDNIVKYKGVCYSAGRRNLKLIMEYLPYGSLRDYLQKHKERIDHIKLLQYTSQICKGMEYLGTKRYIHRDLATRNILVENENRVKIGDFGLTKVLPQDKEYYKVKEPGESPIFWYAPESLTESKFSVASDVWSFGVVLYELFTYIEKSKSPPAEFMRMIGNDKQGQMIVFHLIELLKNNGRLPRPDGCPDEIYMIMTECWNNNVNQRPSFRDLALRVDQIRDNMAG

O=C(O)C1CC12CCN(c1ccc(Nc3nc(N4CCCCCCC4)nc4cn[nH]c(=O)c34)cc1)CC2 (stereo not shown) [Example 141, 6-(4-((2-(azocan-1-yl)-5-oxo-5,6-dihydropyrimido[4,5-d]pyridazin-4-yl)amino)phenyl)-6-azaspiro[2.5]octane-1-carboxylic acid]
IC50 (JAK2): < 10 nM | IC50 [1]: < 50 nM

O=c1[nH]ncc2nc(N3CCCCC3)nc(Nc3ccc(OCCN4CCNCC4)nc3)c12 [Example 181, 4-((6-(2-(piperazin-1-yl)ethoxy)pyridin-3-yl)amino)-2-(piperidin-1-yl)pyrimido[4,5-d]pyridazin-5(6H)-one]
IC50 (JAK2): > 100 nM | IC50 [1]: > 100 nM

O=C(O)CN1CCN(c2ccc(Nc3nc(-c4ccccc4)nc4cn[nH]c(=O)c34)cc2)CC1 [Example 12, 2-(4-(4-(5-oxo-2-phenyl-5,6-dihydropyrimido[4,5-d]pyridazin-4-ylamino)phenyl)piperazin-1-yl) acetic acid]
IC50 (JAK2): < 10 nM | IC50 [1]: < 50 nM

N#CCC1CCN(c2nc(Nc3ccc(N4CCC(CCO)CC4)cc3)c3c(=O)[nH]ncc3n2)CC1 [Example 196, 2-(1-(4-((4-(4-(2-hydroxyethyl)piperidin-1-yl)phenyl)amino)-5-oxo-5,6-dihydropyrimido[4,5-d]pyridazin-2-yl)piperidin-4-yl)acetonitrile]
IC50 (JAK2): < 10 nM | IC50 [1]: < 10 nM

CCN(CC)CCOc1ccc(Nc2nc(N3CCC(CC#N)CC3)nc3cn[nH]c(=O)c23)cc1 [Example 224, 2-(1-(4-((4-(2-(diethylamino)ethoxy)phenyl)amino)-5-oxo-5,6-dihydropyrimido[4,5-d]pyridazin-2-yl)piperidin-4-yl)acetonitrile]
IC50 (JAK2): < 50 nM | IC50 [1]: < 50 nM

CC(C)(CO)Oc1ccc(Nc2nc(N3CCCCCC3)nc3cn[nH]c(=O)c23)cc1 [Example 314, 2-(azepan-1-yl)-4-((4-((1-hydroxy-2-methylpropan-2-yl)oxy)phenyl)amino) pyrimido[4,5-d]pyridazin-5(6H)-one]
IC50 (JAK2): < 10 nM | IC50 [1]: < 50 nM

O=c1[nH]ncc2nc(N3CCCCCC3)nc(Nc3ccc(OCCN4CCC(CO)CC4)cc3)c12 [Example 203, 2-(azepan-1-yl)-4-((4-(2-(4-(hydroxymethyl)piperidin-1-yl)ethoxy)phenyl)amino)pyrimido[4,5-d]pyridazin-5(6H)-one]
IC50 (JAK2): < 10 nM | IC50 [1]: < 50 nM

CN1CCN(Cc2ccc(Nc3nc(N4CCCCCC4)nc4cn[nH]c(=O)c34)cc2)CC1 [Example 85, 2-(azepan-1-yl)-4-((4-((4-methylpiperazin-1-yl)methyl)phenyl)amino)pyrimido[4,5-d]pyridazin-5(6H)-one]
IC50 (JAK2): < 10 nM | IC50 [1]: < 50 nM

O=C(O)[C@H]1CO[C@H](COc2ccc(Nc3nc(N4CCCCCC4)nc4cn[nH]c(=O)c34)cc2)CO1 [Example 124, (2R,5S)-5-((4-((2-(azepan-1-yl)-5-oxo-5,6-dihydropyrimido[4,5-d]pyridazin-4-yl)amino)phenoxy)methyl)-1,4-dioxane-2-carboxylic acid]
IC50 (JAK2): < 10 nM | IC50 [1]: < 10 nM

O=C(O)C1CC12CCN(c1ccc(Nc3nc(N4CCCNCC4)nc4cn[nH]c(=O)c34)cc1)CC2 (stereo not shown) [Example 72, 6-(4-((2-(1,4-diazepan-1-yl)-5-oxo-5,6-dihydropyrimido[4,5-d]pyridazin-4-yl)amino)phenyl)-6-azaspiro[2.5]octane-1-carboxylic acid hydrochloride]
IC50 (JAK2): < 100 nM | IC50 [1]: < 50 nM

NC(=O)CC1CCN(c2ccc(Nc3nc(-c4ccccc4)nc4cn[nH]c(=O)c34)cn2)CC1 [Example 102, 2-(1-(5-((5-oxo-2-phenyl-5,6-dihydropyrimido[4,5-d]pyridazin-4-yl)amino)pyridin-2-yl)piperidin-4-yl) acetamide]
IC50 (JAK2): > 100 nM | IC50 [1]: < 50 nM

N#CCC1CCN(c2nc(Nc3ccc(OCCCO)cc3)c3c(=O)[nH]ncc3n2)CC1 [Example 295, 2-(1-(4-((4-(3-hydroxypropoxy)phenyl)amino)-5-oxo-5,6-dihydropyrimido[4,5-d]pyridazin-2-yl)piperidin-4-yl) acetonitrile]
IC50 (JAK2): < 50 nM | IC50 [1]: < 50 nM

O=c1[nH]ncc2nc(N3CCCCCC3)nc(Nc3ccc(N4CCC(F)CC4)cc3)c12 [Example 289, 2-(azepan-1-yl)-4-((4-(4-fluoropiperidin-1-yl)phenyl)amino)pyrimido[4,5-d]pyridazin-5(6H)-one]
IC50 (JAK2): < 10 nM | IC50 [1]: < 50 nM

O=c1[nH]ncc2nc(N3CCCCCC3)nc(Nc3ccc(N4CCC(CCO)CC4)nc3)c12 [Example 236, 2-(azepan-1-yl)-4-((6-(4-(2-hydroxyethyl)piperidin-1-yl)pyridin-3-yl)amino) pyrimido[4,5-d]pyridazin-5(6H)-one]
IC50 (JAK2): < 50 nM | IC50 [1]: < 100 nM

O=c1[nH]ncc2nc(N3CCCCCC3)nc(Nc3ccc(N4CCCC(CCO)C4)cc3)c12 (stereo not shown) [Example 272, 2-(azepan-1-yl)-4-((4-(3-(2-hydroxyethyl)piperidin-1-yl)phenyl)amino) pyrimido[4,5-d]pyridazin-5(6H)-one]
IC50 (JAK2): < 10 nM | IC50 [1]: < 50 nM

O=c1[nH]ncc2nc(N3CCCCCC3)nc(Nc3ccc(CO)cc3)c12 [Example 331, 2-(azepan-1-yl)-4-((4-(hydroxymethyl)phenyl)amino)pyrimido[4,5-d]pyridazin-5(6H)-one]
IC50 (JAK2): > 100 nM | IC50 [1]: < 50 nM

CN(C)c1nc(Nc2ccc(CN3CCNCC3)cc2)c2c(=O)[nH]ncc2n1 [Example 49, 2-(dimethylamino)-4-((4-(piperazin-1-ylmethyl)phenyl)amino)pyrimido[4,5-d]pyridazin-5(6H)-one hydrochloride]
IC50 (JAK2): < 100 nM | IC50 [1]: < 100 nM

N#CCC(=O)N1CCN(c2ccc(Nc3nc(N4CCC(CC#N)CC4)nc4cn[nH]c(=O)c34)cn2)CC1 [Example 237, 3-(4-(5-((2-(4-(cyanomethyl)piperidin-1-yl)-5-oxo-5,6-dihydropyrimido[4,5-d]pyridazin-4-yl)amino)pyridin-2-yl)piperazin-1-yl)-3-oxopropanenitrile]
IC50 (JAK2): < 10 nM | IC50 [1]: < 50 nM

O=C(O)Cn1nnc(-c2ccc(Nc3nc(N4CCCCCC4)nc4cn[nH]c(=O)c34)cc2)n1 [Example 235, 2-(5-(4-((2-(azepan-1-yl)-5-oxo-5,6-dihydropyrimido[4,5-d]pyridazin-4-yl)amino)phenyl)-2H-tetrazol-2-yl)acetic acid]
IC50 (JAK2): < 50 nM | IC50 [1]: < 50 nM

O=c1[nH]ncc2nc(N3CCCCCC3)nc(Nc3ccc(N4CCC(CO)CC4)cc3)c12 [Example 202, 2-(azepan-1-yl)-4-((4-(4-(hydroxymethyl)piperidin-1-yl)phenyl)amino) pyrimido[4,5-d]pyridazin-5(6H)-one]
IC50 (JAK2): < 10 nM | IC50 [1]: < 50 nM

CCN1CCN(c2ccc(Nc3nc(-c4ccsc4)nc4cn[nH]c(=O)c34)cc2)CC1 [Example 37, 4-(4-(4-ethylpiperazin-1-yl)phenylamino)-2-(thiophen-3-yl)pyrimido[4,5-d]pyridazin-5(6H)-one hydrochloride]
IC50 (JAK2): < 100 nM | IC50 [1]: < 10 nM

CC(C)N(CCOc1ccc(Nc2nc(N3CCCCCC3)nc3cn[nH]c(=O)c23)cc1)C(C)C [Example 188, 2-(azepan-1-yl)-4-((4-(2-(diisopropylamino)ethoxy)phenyl)amino) pyrimido[4,5-d]pyridazin-5(6H)-one]
IC50 (JAK2): < 50 nM | IC50 [1]: < 50 nM

N#CCC1CCN(c2nc(Nc3ccc(OC4CCN(CCO)CC4)cc3)c3c(=O)[nH]ncc3n2)CC1 [Example 291, 2-(1-(4-((4-((1-(2-hydroxyethyl)piperidin-4-yl)oxy)phenyl)amino)-5-oxo-5,6-dihydropyrimido[4,5-d]pyridazin-2-yl)piperidin-4-yl)acetonitrile]
IC50 (JAK2): < 50 nM | IC50 [1]: < 50 nM

CN1CCN(c2ccc(Nc3nc(N4CCC(CC#N)CC4)nc4cn[nH]c(=O)c34)cn2)CC1 [Example 243, 2-(1-(4-((6-(4-methylpiperazin-1-yl)pyridin-3-yl)amino)-5-oxo-5,6-dihydropyrimido[4,5-d]pyridazin-2-yl)piperidin-4-yl)acetonitrile]
IC50 (JAK2): < 50 nM | IC50 [1]: < 50 nM

COc1ccccc1-c1nc(Nc2ccc(N3CCC4(CC3)CC4C(=O)O)cc2)c2c(=O)[nH]ncc2n1 (stereo not shown) [Example 53, 6-(4-((2-(2-methoxylphenyl)-5-oxo-5,6-dihydropyrimido[4,5-d]pyridazin-4-yl)amino)phenyl)-6-azaspiro[2.5]octane-1-carboxylic acid]
IC50 (JAK2): < 100 nM | IC50 [1]: > 100 nM

CN1CCN(c2nc(Nc3ccc(CN4CCNCC4)cc3)c3c(=O)[nH]ncc3n2)CC1 [Example 45, 2-(4-methylpiperazin-1-yl)-4-((4-(piperazin-1-ylmethyl)phenyl)amino) pyrimido[4,5-d]pyridazin-5(6H)-one hydrochloride]
IC50 (JAK2): > 100 nM | IC50 [1]: > 100 nM

O=C(O)C1CCN(c2nc(Nc3ccc(CN4CCNCC4)cc3)c3c(=O)[nH]ncc3n2)CC1 [Example 51, 1-(5-oxo-4-((4-(piperazin-1-ylmethyl)phenyl)amino)-5,6-dihydropyrimido[4,5-d]pyridazin-2-yl)piperidine-4-carboxylic acid hydrochloride]
IC50 (JAK2): > 100 nM | IC50 [1]: > 100 nM

O=C(O)C1CC12CCN(c1ccc(Nc3nc(-c4ccccc4)nc4cn[nH]c(=O)c34)cc1)CC2 (stereo not shown) [Example 22, sodium 6-(4-(5-oxo-2-phenyl-5,6-dihydropyrimido[4,5-d]pyridazin-4-ylamino)phenyl)-6-azaspiro[2.5]octane-1-carboxylate]
IC50 (JAK2): < 50 nM | IC50 [1]: < 100 nM

N#CCC1CCN(c2nc(Nc3ccc(N4CCN(CCC(=O)O)CC4)cc3)c3c(=O)[nH]ncc3n2)CC1 [Example 220, 3-(4-(4-((2-(4-(cyanomethyl)piperidin-1-yl)-5-oxo-5,6-dihydropyrimido[4,5-d]pyridazin-4-yl)amino)phenyl)piperazin-1-yl)propanoic acid]
IC50 (JAK2): < 10 nM | IC50 [1]: < 10 nM
